From patent US20060079497A1, “Lavendamycin analogues and methods of synthesizing and using lavendamycin analogues” (Ball State University, priority 2004, published 2006)
Where “and” joins values, the source holds several entries; their conditions need not be identical. Equal entries are not always repeated. Where two headings read alike, the source gives them in different places.

Key:
[1] = molecular target: T1, HIV reverse transcriptase (HIV-RT) (Human immunodeficiency virus type 1 group M subtype B, UniProt P04585); assay: HIV-RT assay (3H-TTP incorporation, modified assay of Okada et al.); type: biochemical
T1 construct: 1 unit/mL of HIV-RT (Worthington Biochemical Corp., Freehold, N.J.); purchased Worthington Biochemical Corp., Freehold, N.J
Description: Briefly, the analogues were initially dissolved in either DMSO or HEPES buffer (pH 7.2) and then diluted to the appropriate concentration before addition to the assay mixtures. […] Several control wells without any inhibitors were also included on each microtiter plate. The reactions were allowed to proceed for 1 h at 37° C. […] A more detailed description of reaction conditions is provided below in the Examples. The concentration of drug which inhibited 50% of the enzyme activity (IC50) was determined by using the computer software program Calcusyn, which plots the dose-effect curves from the inhibition data and calculates the IC50 for each drug.
(§1) The assay procedure described below is adapted from Okada et al. (Okada, H.; Mukai, H.; Inouye, Y; Nakamura, S. “Biological Properties of Streptonigrin Derivatives II. Inhibition of Reverse Transcriptase Activity,” J. Antibiot., 1986, 39, 306-308). The lavendamycin analogs were initially dissolved in DMSO at a concentration of 1 mg/mL. Occasionally, mild sonication and heat were used to dissolve the less soluble compounds. The dissolved analogs were then serially diluted in distilled water to achieve concentrations in the final reaction mixture ranging from 0.5-15 μM. In addition to the lavendamycin analogs, the final reaction mixture contained 100 mM Tris-HCl (pH 8.0), 5 mM MgCl2, 5 mM dithiothreitol, 60 mM NaCl, 0.2 mM [^3H] thymidine triphosphate(5 μCi well), 4 μg/mL poly (rA)-oligo(dT)12-18 (Amersham Pharmacia Biotech, Piscataway, N.J.) and 1 unit/mL of HIV-RT (Worthington Biochemical Corp., Freehold, N.J.) in a total volume of 300 μL. For each assay, the reaction mixture containing 8× buffer, double distilled H2O, ^3HTTP, template-primer and HIV-RT was pre-mixed in a 15-mL sterile tube in quantities required for the particular experiment. After adding the enzyme, the reaction mixture was mixed and kept on ice. The inhibitors, either AZT(Moravek Biochemicals, Brea, Calif.), analogs or both were added to appropriate wells in a 24 well microtiter plate and ddH2O was added to each well to bring the volume of all test wells to 100 μL. Two hundred μL of the chilled reaction mixture was then added to each of the test wells, mixed, and incubated for 1 hr at 37° C. Several control wells with no inhibitors were included on each test plate. After stopping the reactions with 25 μL 0.1 M EDTA, triplicate samples of 15 μL from each test well were spotted on DE81 ion exchange filter paper squares (Whatman Paper, Maidstone, England). After drying, each filter was washed for 10 minutes three times with 5% TCA-NHPO4, three times with 0.6M NaCl-[…] Na Citrate, one time with ddH2O and one time with 95% ethanol. After drying the individual filter papers were added to 5 mL Scintiverse E (Fisher Scientific, Chicago, Ill.) scintillation fluid and the amount of 3H-TTP uptake measured as counts per minute on a Beckman liquid scintillation counter. […] The results were then analyzed using Calcusyn, a windows software program for dose effect analysis designed by T. -C. Chou and M. P. Hayball and published by Biosoft® (UK).

HIV-RT = molecular target: T2, HIV-RT (Human immunodeficiency virus type 1 group M subtype B, UniProt P04585); assay: Two drug combination of AZT-TP and analogues at constant molar ratios in HIV-RT assay (CI and dose reduction index); type: biochemical
T2 construct: 1 unit/mL of HIV-RT (Worthington Biochemical Corp., Freehold, N.J.); purchased Worthington Biochemical Corp., Freehold, N.J
Excerpt: In order to derive the dose reduction index of several of these compounds the method of Chou and Talalay was again employed using the classic isobologram technique. This method also involves the plotting of dose-effect curves for each agent as well as for multiply diluted fixed-ratio combinations of the agents.
The dose reduction index is a measure of how much the dose of each drug in a synergistic combination may be reduced at a given effect level compared with the doses of each drug alone.
as §1

tumor = assay: Antitumor activity (applicant's earlier studies)
[2] = Water solubility in HEPES buffer solution; type: physicochemical
BALB/c mice = assay: In vivo toxicity of analogue 19 in BALB/c mice; design: species or system mouse
Excerpt: Analogue 19 was first solubilized in 10% dry DMSO, diluted in water, and given to the mice intraperitoneally in one dose or in two doses per day. Mice were weighed and observed for 3 days following treatment.

[3] = 50% inhibition of HIV RT activity toward 1 unit of enzyme, read-out: Mean IC50 ± SEM (no. of expts)
[4] = Mean IC50 ± SEM (no. of expts), 50% inhibition of HIV RT activity toward 1 unit of enzyme

| SMILES | IC50 [1, 3] [µM] | IC50 ([1]; read-out: IC50 against HIV-RT) [µM] | dose reduction in combination with AZT-TP (HIV-RT) | CI at HIV-RT Inhibition of 50% (HIV-RT; molar ratio AZT:analogue 1:600) | CI at HIV-RT Inhibition of 70% (HIV-RT; molar ratio AZT:analogue 1:600) | Dose Reduction Index (50%) AZT-TP (HIV-RT; molar ratio AZT:analogue 1:600) | Dose Reduction Index (50%) analogue (HIV-RT; molar ratio AZT:analogue 1:600) | CI at HIV-RT Inhibition of 50% (HIV-RT; molar ratio AZT:analogue 1:857) | CI at HIV-RT Inhibition of 70% (HIV-RT; molar ratio AZT:analogue 1:857) | Dose Reduction Index (50%) AZT-TP (HIV-RT; molar ratio AZT:analogue 1:857) | Dose Reduction Index (50%) analogue (HIV-RT; molar ratio AZT:analogue 1:857) | IC50 [1, 4] [µM] | antitumor activity (tumor) | Water solubility [2] | further results |
| --- | --- | --- | --- | --- | --- | --- | --- | --- | --- | --- | --- | --- | --- | --- | --- |
| CCCCCCCCOC(=O)c1cc2c([nH]c3ccccc32)c(-c2ccc3c(n2)C(=O)C(N)=CC3=O)n1 [Compound 20, Demethyllavendamycin n-Octyl Ester] | 7.1 ± 2.7 | < 8 | considerable dose reduction | 0.49 ± 0.17 | 0.40 ± .09 | 2.4 | 13.7 | – | – | – | – | – | – | – | CI at HIV-RT Inhibition of 50% (HIV-RT; molar ratio AZT:analogue 1:214): 0.46 ± 0.11; CI at HIV-RT Inhibition of 70% (HIV-RT; molar ratio AZT:analogue 1:214): 0.56 ± 0.22; Dose Reduction Index (50%) AZT-TP (HIV-RT; molar ratio AZT:analogue 1:214): 4.08; Dose Reduction Index (50%) analogue (HIV-RT; molar ratio AZT:analogue 1:214): 4.63 |
| CCCCOC(=O)c1cc2c([nH]c3ccccc32)c(-c2ccc3c(n2)C(=O)C(NC(=O)CCC)=CC3=O)n1 [Compound 12, 7-N-n-Butyryidemethyllavendamycin n-Butyl Ester] | 5.8 ± 1.5 | < 8 | considerable dose reduction | 0.45 ± 0.06 | 0.32 ± 0.08 | 3.0 | 8.2 | 0.39 ± 0.06 | 0.32 ± 0.09 | 3.9 | 7.3 | – | – | – | – |
| COC(=O)c1nc(-c2ccc3c(n2)C(=O)C(NC(C)=O)=CC3=O)c2[nH]c3ccccc3c2c1C [Compound 11, 7-acetyllavendamycin methyl ester] | – | – | – | – | – | – | – | – | – | – | – | 15.1 ± 5.9 | highly active antitumor agents | – | – |
| CC(=O)NC1=CC(=O)c2ccc(-c3nc(C(=O)O)cc4c3[nH]c3ccccc34)nc2C1=O [Compound 18, 7-N-Acetyldemethyllavendamycin] | – | – | considerable dose reduction | – | 1.35 ± 0.64 | 1.5 | 2.6 | – | 1.7 ± 1.49 | 1.7 | 2.0 | 13.3 ± 4.4 | – | 0.05 mg/1 L | – |
| CC(=O)NC1=CC(=O)c2ccc(-c3nc(C(N)=O)cc4c3[nH]c3ccccc34)nc2C1=O [Compound 16, 7-N-Acetyldemethyllavendamycin Amide] | – | – | – | – | – | – | – | – | – | – | – | 12.7 ± 5.2 | highly active antitumor agents | – | – |
| CC(=O)NC1=CC(=O)c2ccc(-c3nc(C(=O)OCCOP(=O)(O)O)cc4c3[nH]c3ccccc34)nc2C1=O [Compound 19] | – | – | considerable dose reduction | <0.1 ± 0.10 | <0.1 ± 0.16 | >100 | >100 | <0.1 ± 0.15 | 0.21 ± 0.18 | >40 | >15 | – | – | 0.05 mg/1 mL | inhibition at 15 µM ([1]; 15 μM): > 92%; IC50 ([1]; IC50 against HIV-RT): < 8 µM and 3 µM; survival and tolerability (BALB/c mice; 50 mg/kg as one ip injection): survived and tolerated; survival and tolerability (BALB/c mice; 75 mg/kg ip in two injections within twenty-four hours): survived and tolerated |
